Measurements published in patent US9540323B2 (BRISTOL-MYERS SQUIBB COMPANY, priority 2012, dated 2017).

Legend:
[1] = biological target: cloned human P2Y1 receptors (Homo sapiens (Human), UniProt P47900); assay: Binding Assay B - Scintillation Proximity Assay (SPA) for P2Y1 binding, [33P] 2MeS-ADP; details: SPA, 0.3 nM [33P] 2MeS-ADP, Cheng-Prusoff; read-out: P2Y1 Ki (nM) using binding assay B
Experimental: Binding Assay B—Scintillation Proximity Assay (SPA) for P2Y1 Binding
A SPA membrane binding assay was used to identify inhibitors of [^33P] […] Reactions were allowed to proceed to completion at room temperature for 1 hour followed by centrifugation of the plate for 5 min. About 40 μL of the aqueous solution was aspirated. Plates were sealed and the [^33P]

[2] = system: human platelet rich plasma (PRP); assay: ADP induced platelet aggregation assay; details: Homo sapiens, Platelet, 5 min, read-out: PA IC50 (μM) @ 10 μM ADP, human PRP, 10 μM ADP, AUC at 5 minute

cloned human P2Y1 receptors, sequence (P47900 whole entry): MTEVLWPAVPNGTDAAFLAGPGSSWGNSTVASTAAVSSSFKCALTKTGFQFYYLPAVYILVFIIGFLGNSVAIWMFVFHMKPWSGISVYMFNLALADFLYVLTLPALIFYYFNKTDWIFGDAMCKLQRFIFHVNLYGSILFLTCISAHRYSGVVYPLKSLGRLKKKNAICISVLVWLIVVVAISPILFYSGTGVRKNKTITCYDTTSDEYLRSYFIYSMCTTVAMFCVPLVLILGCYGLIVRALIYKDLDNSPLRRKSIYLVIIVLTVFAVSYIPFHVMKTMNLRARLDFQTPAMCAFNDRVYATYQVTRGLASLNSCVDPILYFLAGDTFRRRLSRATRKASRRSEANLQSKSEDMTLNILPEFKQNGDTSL

SMILES | Ki [1] | IC50 [2]
CC1(C)CN(c2ccccc2NC(=O)Nc2ccc(OC(F)(F)F)cc2)c2c(O)cc(F)c(-c3ccc(Cl)cn3)c21 [Example 162, 1-(2-(4-(5-Chloropyridin-2-yl)-5-fluoro-7-hydroxy-3,3-dimethylindolin-1-yl)phenyl)-3-(4-(trifluoromethoxy)phenyl)urea] | 6.4 nM | 0.25 µM
CC1(C)CN(c2ccccc2NC(=O)Nc2ccc(OC(F)(F)F)cc2)c2c(O)cc(F)c(-c3cnc(Cl)cn3)c21 [Example 163, 1-(2-(4-(5-Chloropyrazin-2-yl)-5-fluoro-7-hydroxy-3,3-dimethylindolin-1-yl)phenyl)-3-(4-(trifluoromethoxy)phenyl)urea] | 43.1 nM | 0.26 µM
CC1(C)CN(c2ccccc2NC(=O)Nc2ccc(OC(F)(F)F)cc2)c2c(O)cc(F)c(-c3ncc(F)cn3)c21 [Example 164, 1-(2-(5-Fluoro-4-(5-fluoropyrimidin-2-yl)-7-hydroxy-3,3-dimethylindolin-1-yl)phenyl)-3-(4-(trifluoromethoxy)phenyl)urea] | 10.8 nM | 0.95 µM
CC(C)(C)c1ccc(-c2c(F)cc(O)c3c2C(C)(C)CN3c2ccccc2NC(=O)Nc2ccc(OC(F)(F)F)cc2)cn1 [Example 165, 1-(2-(4-(6-(tert-Butyl)pyridin-3-yl)-5-fluoro-7-hydroxy-3,3-dimethylindolin-1-yl)phenyl)-3-(4-(trifluoromethoxy)phenyl)urea] | 26.8 nM | 0.21 µM
CC1(C)CN(c2ccccc2NC(=O)Nc2nc3ccc(F)cc3s2)c2c(O)cc(F)c(-c3ccc(C(F)(F)F)cn3)c21 [Example 168, 1-(2-(5-Fluoro-7-hydroxy-3,3-dimethyl-4-(5-(trifluoromethyl)pyridin-2-yl)indolin-1-yl)phenyl)-3-(6-fluorobenzo[d]thiazol-2-yl)urea] | 29.4 nM | 0.45 µM
CC1(C)CN(c2ccccc2NC(=O)Nc2ccc(OC(F)(F)F)cc2)c2c(O)ccc(-c3nc4cc(F)ccc4s3)c21 [Example 170, 1-(2-(4-(5-Fluorobenzo[d]thiazol-2-yl)-7-hydroxy-3,3-dimethylindolin-1-yl)phenyl)-3-(4-(trifluoromethoxy)phenyl)urea] | 14.1 nM | 0.25 µM
CC1(C)CN(c2ccccc2NC(=O)Nc2nc3ccc(F)nc3s2)c2c(O)cc(F)c(-c3nc4ccc(F)cc4s3)c21 [Example 178, 1-(2-(5-Fluoro-4-(6-fluorobenzo[d]thiazol-2-yl)-7-hydroxy-3,3-dimethylindolin-1-yl)phenyl)-3-(5-fluorothiazolo[5,4-b]pyridin-2-yl)urea] | 17.9 nM | 0.74 µM
COc1ccc2nc(NC(=O)Nc3ccccc3N3CC(C)(C)c4c(-c5nc6ccc(F)cc6s5)c(F)cc(O)c43)sc2c1 [Example 179, 1-(2-(5-Fluoro-4-(6-fluorobenzo[d]thiazol-2-yl)-7-hydroxy-3,3-dimethylindolin-1-yl)phenyl)-3-(6-methoxybenzo[d]thiazol-2-yl)urea] | 22.6 nM | 0.49 µM
CC1(C)CN(c2ccccc2NC(=O)Nc2csc(C(F)(F)F)n2)c2c(O)cc(F)c(-c3nc4cc(Cl)ccc4s3)c21 [Example 180, 1-(2-(4-(5-Chlorobenzo[d]thiazol-2-yl)-5-fluoro-7-hydroxy-3,3-dimethylindolin-1-yl)phenyl)-3-(2-(trifluoromethyl)thiazol-4-yl)urea] | 28.4 nM | 0.56 µM
CC1(C)CN(c2ccccc2NC(=O)Nc2csc(Cl)n2)c2c(O)cc(F)c(-c3nc4cc(F)ccc4s3)c21 [Example 181, 1-(2-Chlorothiazol-4-yl)-3-(2-(5-fluoro-4-(5-fluorobenzo[d]thiazol-2-yl)-7-hydroxy-3,3-dimethylindolin-1-yl)phenyl)urea] | 9.7 nM | 0.49 µM
CC1(C)CN(c2ccccc2NC(=O)Nc2nc3ccc(F)nc3s2)c2c(O)cc(F)c(-c3nc4cc(F)ccc4s3)c21 [Example 182, 1-(2-(5-Fluoro-4-(5-fluorobenzo[d]thiazol-2-yl)-7-hydroxy-3,3-dimethylindolin-1-yl)phenyl)-3-(5-fluorothiazolo[5,4-b]pyridin-2-yl)urea] | 15.7 nM | 0.51 µM
